The source of these data is US20100041892A1, “Therapeutic agent for diabetes” (priority 2005, published 2010).

SMILES strings stand for the structures. Like-named read-outs stand apart in the source and are kept apart here.

The melting point is the temperature of the solid-liquid transition. The EC50 is the concentration needed to bring the measured effect to its halfway point. Low values mean an effect from little substance, high ones a need for much substance.

One series addresses T1, PPARγ-RXRα heterodimer (Homo sapiens, UniProt P37231).
T1 construct: expressed in transfected cells; host or cells: CHO-K1 (PPARγ:RXRα:4ERPP/CHO-K1)
T1 sequence (P37231 1-477 isoform P37231-2): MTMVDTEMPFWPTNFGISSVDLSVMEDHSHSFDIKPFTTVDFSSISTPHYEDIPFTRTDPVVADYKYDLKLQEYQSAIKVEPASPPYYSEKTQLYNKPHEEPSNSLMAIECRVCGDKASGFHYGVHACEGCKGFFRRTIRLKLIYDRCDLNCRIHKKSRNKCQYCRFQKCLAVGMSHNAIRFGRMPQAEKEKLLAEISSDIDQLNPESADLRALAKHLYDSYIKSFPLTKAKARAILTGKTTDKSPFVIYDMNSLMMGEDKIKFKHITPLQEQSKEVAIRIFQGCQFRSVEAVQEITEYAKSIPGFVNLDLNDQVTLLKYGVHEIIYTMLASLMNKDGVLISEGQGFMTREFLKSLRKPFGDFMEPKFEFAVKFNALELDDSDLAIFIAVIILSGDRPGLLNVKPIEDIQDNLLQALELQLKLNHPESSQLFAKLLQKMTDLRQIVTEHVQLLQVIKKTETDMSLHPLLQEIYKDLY
T1 sequence (P19793 1-462 partner): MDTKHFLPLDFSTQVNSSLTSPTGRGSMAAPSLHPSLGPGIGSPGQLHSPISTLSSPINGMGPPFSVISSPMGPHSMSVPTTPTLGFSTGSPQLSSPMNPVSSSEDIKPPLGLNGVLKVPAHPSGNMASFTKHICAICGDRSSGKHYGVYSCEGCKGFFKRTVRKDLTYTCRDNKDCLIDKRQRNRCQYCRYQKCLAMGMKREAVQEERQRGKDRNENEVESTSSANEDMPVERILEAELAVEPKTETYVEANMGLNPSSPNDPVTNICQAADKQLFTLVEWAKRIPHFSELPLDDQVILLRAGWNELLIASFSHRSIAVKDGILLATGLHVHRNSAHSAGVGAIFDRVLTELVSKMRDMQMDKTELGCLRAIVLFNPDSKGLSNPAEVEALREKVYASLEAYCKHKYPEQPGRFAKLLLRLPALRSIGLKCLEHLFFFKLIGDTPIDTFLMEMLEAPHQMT
As to the kind of experiment: PPARγ-RXRα heterodimer ligand activity (luciferase reporter, PPARγ:RXRα:4ERPP/CHO-K1 cells). It counts as cell-based. As to conditions: concentration showing 50% of the maximum luciferase induction rate; CHO-K1 reporter cells, one day incubation. On the procedure: The PPARγ:RXRα:4ERPP/CHO-K1 cells described in WO03/099793 were cultured in a Ham F12 medium [manufactured by Life Technologies, Inc., US] containing 10% calf fetal serum [manufactured by Life Technologies, Inc., US], sown in a 96-well white plate (manufactured by Corning Coster Corporation, US] at 1×10^4 cells/well, and incubated overnight in a carbon dioxide gas incubator at 37° C.
Then, the medium was removed from the 96 well white plate, 45 μl of Ham F12-medium containing 0.1% fatty acid-free bovine serum albumin (BSA) and a test compound (5 μl) were added, and the cells were incubated for one day in a carbon dioxide gas incubator at 37° C. The medium was removed, 20 μl of PicaGene 7.5 (manufactured by Wako Pure Chemical Industries, Ltd.) 2-fold diluted with HBSS (HANKS' BALANCED SALT SOLUTION) [manufactured by BIO WHITTAKER, US] was added. After stirring, the luciferase activity was determined using the 1420 ARVO Multilabel Counter [manufactured by PerkinElmer, US].
The induction rate was calculated from the luciferase activity of each test compound based on the luciferase activity of the test compound non-administration group as 1. The test compound concentration and the induction rate were analyzed by PRISM [manufactured by GraphPad Software, Inc., US] to calculate EC50 value (compound concentration showing 50% of the maximum value of induction rate) of the test compound.
In general terms: In a reporter assay the amount or activity of a reporter protein is the signal.

Another series has as its system KKAy mice. The series can be described thus: Blood glucose and blood lipid (triglyceride) lowering action in mice. It counts as in vivo. Conditions: Mus musculus, 4TO7, po, 4 to 7 days; for response vs control in vivo at 0.01 %: 0.01% in powder diet; for response vs control in vivo at 0.03 %: 0.03% in powder diet. The source says: The test compound was mixed with a powder diet (CE-2, CLEA JAPAN, INC.) at a proportion of 0.01% (0.03% for the compounds of Examples 1, 2, 12, 81, 94, 96, 129 and 143, and 0.005% for the compounds of Examples 28, 30 and 37) and freely given to KKAy mice (9 to 14-week-old, 5 mice per group) which are obesity non-insulin-dependent diabetes (type-2 diabetes) models, for 4 to 7 days. During this period, water was freely given. The blood was drawn from the orbital venous plexus. Glucose and triglyceride in the plasma separated from the blood were quantitated using L Type Wako Glu2 (Wako Pure Chemical Industries, Ltd.) and L Type Wako TG·H (Wako Pure Chemical Industries, Ltd.), respectively, according to an enzyme method.

The mark [1] stands for this setting: plasma glucose relative to non-administration group = 100%, read-out: hypoglycemic action (%).
Setting [2] is: plasma triglyceride relative to non-administration group = 100%, read-out: hypolipidemic action (%).

Molecule `COCCOc1ccc(CCCOC(=O)NS(=O)(=O)NC2CCC(C)CC2)c(Oc2ncc(C(F)(F)F)cc2Cl)c1` (stereo not shown) [Example 205, 3-[2-{[3-chloro-5-(trifluoromethyl)pyridin-2-yl]oxy}-4-(2-methoxyethoxy)phenyl]propyl {[(4-methylcyclohexyl)amino]sulfonyl}carbamate] showed a melting point of 121.5 to 121.8 °C. The EC50 on PPARγ-RXRα heterodimer was found to be 3.1 nM. In addition, the response vs control in vivo at 0.01 % in the series on KKAy mice (setting [1]) turned out to be 54%. Besides, the response vs control in vivo at 0.01 % with KKAy mice (setting [2]) was 50%.

`CC(C)CCS(=O)(=O)NC(=O)/C=C/c1cc(OC(C)C)nn1Cc1ccc(C(F)(F)F)cc1Cl` [Example 112, (2E)-3-{1-[2-chloro-4-(trifluoromethyl)benzyl]-3-isopropoxy-1H-pyrazol-5-yl}-N-[(3-methylbutyl)sulfonyl]acrylamide]: on PPARγ-RXRα heterodimer, the EC50 is 8.3 nM. For the same molecule, the response vs control in vivo at 0.01 % stood at 53% with KKAy mice (setting [1]) and 70% in the series with KKAy mice (setting [2]).

`CCCCCS(=O)(=O)NC(=O)CCc1ccc(OCCOC)cc1Oc1ncc(C(F)(F)F)cc1Cl` [Example 1, 3-[2-{[3-chloro-5-(trifluoromethyl)pyridin-2-yl]oxy}-4-(2-methoxyethoxy)phenyl]-N-(pentylsulfonyl)propanamide] came in with an EC50 on PPARγ-RXRα heterodimer of 1.5 nM. Moreover, the response vs control in vivo at 0.03 % in the series on KKAy mice (setting [1]) came to 47%; with KKAy mice (setting [2]) it was 53%.

In turn, `CCCCCS(=O)(=O)NC(=O)OCc1ccc(OCCOC)cc1Oc1ncc(C(F)(F)F)cc1Cl` [Example 58, 2-{[3-chloro-5-(trifluoromethyl)pyridin-2-yl]oxy}-4-(2-methoxyethoxy)benzyl (pentylsulfonyl)carbamate] gave an EC50 on PPARγ-RXRα heterodimer of 10 nM. Moreover, the values for the response vs control in vivo at 0.01 % in the series with KKAy mice (setting [1]) and in the series with KKAy mice (setting [2]) were 64% and 73%, respectively.

For the molecule `CCCCCNS(=O)(=O)NC(=O)CCc1ccc(OCCOC)cc1Oc1ncc(C(F)(F)F)cc1Cl` [Example 214, 3-[2-{[3-chloro-5-(trifluoromethyl)pyridin-2-yl]oxy}-4-(2-methoxyethoxy)phenyl]-N-[(pentylamino)sulfonyl]propanamide], the midpoint of the response at PPARγ-RXRα heterodimer, the EC50, lay at 1.1 nM. For the same molecule, the response vs control in vivo at 0.01 % in the series on KKAy mice (setting [1]) came to 56%; in the series with KKAy mice (setting [2]), 65%.

In the case of `CCCCCS(=O)(=O)NC(=O)/C=C/c1cc(C2CC2)nn1Cc1ccc(C(F)(F)F)cc1Cl` [Example 155, (2E)-3-{1-[2-chloro-4-(trifluoromethyl)benzyl]-3-cyclopropyl-1H-pyrazol-5-yl}-N-(pentylsulfonyl)acrylamide], the EC50 at PPARγ-RXRα heterodimer was 12 nM. The response vs control in vivo at 0.01 % in the series on KKAy mice (setting [1]) and in the series on KKAy mice (setting [2]) was 70% in each case.

Consider `CCCCCS(=O)(=O)NC(=O)/C=C/c1ccc(OCCO)cc1Oc1ncc(C(F)(F)F)cc1Cl` [Example 218, (2E)-3-[2-{[3-chloro-5-(trifluoromethyl)pyridin-2-yl]oxy}-4-(2-hydroxyethoxy)phenyl]-N-(pentylsulfonyl)acrylamide monohydrate], for which, at PPARγ-RXRα heterodimer, the 50% effective concentration (EC50) amounted to 80 nM. In addition, the response vs control in vivo at 0.01 % in the series on KKAy mice (setting [1]) was 81%; with KKAy mice (setting [2]), 129%.

As for `CC(C)Oc1ccc(CCCOC(=O)NS(=O)(=O)NCCc2ccccn2)c(Oc2ncc(C(F)(F)F)cc2Cl)c1` [Example 444, 3-(2-{[3-chloro-5-(trifluoromethyl)pyridin-2-yl]oxy}-47 isopropoxyphenyl)propyl {[(2-pyridin-2-ylethyl)amino]sulfonyl}carbamate], the EC50 at PPARγ-RXRα heterodimer worked out at 3.4 nM. The response vs control in vivo at 0.01 % was 55% in the series with KKAy mice (setting [1]) and 52% in the series with KKAy mice (setting [2]).

Consider `CCCCCS(=O)(=O)NC(=O)/C=C/c1ccc(OCCOC2CC2)cc1Oc1ncc(C(F)(F)F)cc1Cl` [Example 424, (2E)-3-{2-{[3-chloro-5-(trifluoromethyl)pyridin-2-yl]oxy}-4-[2-(cyclopropyloxy)ethoxy]phenyl}-N-(pentylsulfonyl)acrylamide], for which, at PPARγ-RXRα heterodimer, the response was half-maximal at 6.2 nM (EC50). Further, the response vs control in vivo at 0.01 % with KKAy mice (setting [1]) came to 70%; with KKAy mice (setting [2]) it was 18%.

With `CCCCCS(=O)(=O)NC(=O)CCc1cc(OC(C)C)nn1Cc1ccc(Cl)cc1Cl` [Example 81, 3-[1-(2,4-dichlorobenzyl)-3-isopropoxy-1H-pyrazol-5-yl]-N-(pentylsulfonyl)propanamide], at PPARγ-RXRα heterodimer, the EC50 was 16 nM. Besides, the response vs control in vivo at 0.03 % in the series on KKAy mice (setting [1]) turned out to be 44%; with KKAy mice (setting [2]), 60%.

On to `CC(C)OCCNS(=O)(=O)NC(=O)OCCCc1ccc(OCCO)cc1Oc1ncc(C(F)(F)F)cc1Cl` [Example 439, 3-[2-{[3-chloro-5-(trifluoromethyl)pyridin-2-yl]oxy}-4-(2-hydroxyethoxy)phenyl]propyl {[(2-isopropoxyethyl)amino]sulfonyl}carbamate], for which the response on PPARγ-RXRα heterodimer was half-maximal at 1.8 nM (EC50). Further, the response vs control in vivo at 0.01 % was found to be 49% in the series with KKAy mice (setting [1]) and 34% in the series with KKAy mice (setting [2]).

With `CCCCCS(=O)(=O)NC(=O)/C=C/c1cc(OC(C)C)nn1Cc1ccc(Cl)cc1Cl` [Example 94, (2E)-3-[1-(2,4-dichlorobenzyl)-3-isopropoxy-1H-pyrazol-5-yl]-N-(pentylsulfonyl)acrylamide], at PPARγ-RXRα heterodimer, the EC50 was found to be 20 nM. The response vs control in vivo at 0.03 % is 48% in the series with KKAy mice (setting [1]) and 79% with KKAy mice (setting [2]).

Take `COCCOc1ccc(CCCOC(=O)NS(=O)(=O)NCCOC(C)C)c(Oc2ncc(C(F)(F)F)cc2Cl)c1` [Example 204, 3-[2-{[3-chloro-5-(trifluoromethyl)pyridin-2-yl]oxy}-4-(2-methoxyethoxy)phenyl]propyl {[(2-isopropoxyethyl)amino]sulfonyl}carbamate]: at PPARγ-RXRα heterodimer, a half-maximal effect (EC50) was put at 0.92 nM. Moreover, the response vs control in vivo at 0.01 % in the series with KKAy mice (setting [1]) came out at 52%; with KKAy mice (setting [2]), 36%.

As for `CCCCCS(=O)(=O)NC(=O)C(C)(C)Cc1ccc(OCCOC)cc1Oc1ncc(C(F)(F)F)cc1Cl` [Example 252, 3-[2-{[3-chloro-5-(trifluoromethyl)pyridin-2-yl]oxy}-4-(2-methoxyethoxy)phenyl]-2,2-dimethyl-N-(pentylsulfonyl)propanamide], the EC50 at PPARγ-RXRα heterodimer was 3.1 nM. Moreover, the values for the response vs control in vivo at 0.01 % with KKAy mice (setting [1]) and in the series on KKAy mice (setting [2]) were 46% and 20%, respectively.

At PPARγ-RXRα heterodimer, `CCCCCS(=O)(=O)NC(=O)C(Cc1ccc(OCCOC)cc1Oc1ncc(C(F)(F)F)cc1Cl)OC` (stereo not shown) [Example 210, 3-[2-{[3-chloro-5-(trifluoromethyl)pyridin-2-yl]oxy}-4-(2-methoxyethoxy)phenyl]-2-methoxy-N-(pentylsulfonyl)propanamide] returned an EC50 of 6.7 nM. In addition, the response vs control in vivo at 0.01 % with KKAy mice (setting [1]) was 58%; in the series on KKAy mice (setting [2]) it was 69%.
